Experimental data reported in patent US4496545A, “Nonapeptide for treating addictive drug withdrawal conditions” (priority 1981, dated 1985).
Where no end group is shown, it is not given here.

What was measured:
morphine-dependent mouse = assay: Inhibition of the naloxone-triggered withdrawal leaps of the morphine-dependent mouse; assay type: in vivo; conditions: 30 mg/kg s.c. 30 minutes before naloxone; median leaps vs NaCl control
Text: An opiate-dependent organism for example reacts the same irrespective of species on the sudden withdrawal of the opiate (e.g. morphine) with withdrawal symptoms, i.e. addictive drug withdrawal conditions. In the course of this occurrence central and peripheral symptoms appear, of which the most striking in the mouse is a series of violent leaps (the so-called "jumping"). The number of leaps per time interval is proportional to the intensity of the withdrawal effect and their enumeration enables the incident to be evaluated quantitatively.
In order to produce the dependence a compressed tablet, which contained 75 mg of morphine (base) and which progressively dissolved with continuous liberation of the morphine, was implanted under the dorsal skin of male mice (weight about 22 g). On the third day after the implantation the morphine antagonist naloxone in a dosage of 0.1 mg/kg was administered subcutaneously to the animals in order to trigger off the withdrawal leaps.
After the injection, the leaps of each individual animal were counted for 20 minutes. The group median value was calculated from the total leaps of 8 animals, which formed a group. […] The dosage median values and, respectively, control median values were calculated from all individual values per dosage and, respectively, the positive and negative controls.

rats [1] = conditions: rat, in vivo
Method: (§1) Toxicological studies were carried out on 12 male and 12 female rats as well as on 3 male and 3 female dogs per dosage. For this purpose DSIP was dissolved in physiological sodium chloride solution and administered intravenously daily for 4 weeks in the dosages of 0.6, 1.8 and 6 mg/kg. At an interval of 2 weeks during these studies the hematological, hematochemical and the urine status were determined, and the electrocardiogram was recorded and analyzed.
(§2) At the termination of the aforementioned studies all animals were painlessly killed and there followed the autopsy besides the removal of organ samples for histological investigations.

dogs [2] = conditions: dog, in vivo
Method: as §1, §2

[3] = test system: alcoholic or methadone- or heroin-dependent patients; conditions: human, in vivo
Method: Of the 25 alcoholic patients 8 were on admission already in delirium tremens to a medium to severe degrees. After the first subjective and objective withdrawal signs manifested themselves the patients received up to 4 intravenous infusions of in each case 0.0214 mg/kg of DSIP daily. For this purpose, the substance was dissolved in physiological sodium chloride solution and infused in the course of 5 minutes.
The duration of treatment amounted to a maximum of 3 days.

rats [4] = assay: Toxicological study, daily intravenous administration for 4 weeks, rats; conditions: maximum dosage (6 mg/kg i.v. daily for 4 weeks)
Method: as §1, §2

dogs [5] = assay: Toxicological study, daily intravenous administration for 4 weeks, dogs; conditions: maximum dosage (6 mg/kg i.v. daily for 4 weeks)
Method: as §1, §2

Molecule | % of negative control (morphine-dependent mouse) [%] | Tolerability of the dosages (rats [1]) | Tolerability of the dosages (dogs [2]) | Tolerance of DSIP: poor [3] [patients] | Electrocardiogram (rats [4]) | Electrocardiogram (dogs [5])
CN1CC[C@]23c4c5ccc(O)c4O[C@H]2[C@@H](O)C=C[C@H]3[C@H]1C5 [Morphine] | 27 |  |  |  |  | 
WAGGDASGE [DSIP, Trp-Ala-Gly-Gly-Asp-Ala-Ser-Gly-Glu] |  | tolerated without any side effects | tolerated without any side effects | 2 | no changes in the electrocardiogram | no changes in the electrocardiogram
